Test results taken from patent US20210186838A1, “ACTIVE SUBSTANCE COMBINATIONS OF N-(4-AMINO-2-METHYLQUINOLIN-6-YL)-2-((4-ETHYLPHENOXY)METHYL)BENZAMIDE AND ONE OR MORE COSMETICALLY OR DERMATOLOGICALLY ACCEPTABLE PRESERVATIVES AND/OR PRESERVATIVE AUXILIARIES” (BEIERSDORF AG, priority 2017, published 2021).

Tests used:
[1] = system: human adipocytes; assay: LDH (lactate dehydrogenase) cytotoxicity assay; conditions: for Assay in which the combination showed better activity than the corresponding active substance alone: LDH: active substance combined with 10 ng/ml N-(4-amino-2-methylquinolin-6-yl)-2-((4-ethylphenoxy)methyl)benzamide, LDH in medium supernatant, assay named in cell = better activity (less LDH escape)
Procedure: The third assay performed is the LDH (lactate dehydrogenase) cytotoxicity assay. In this assay, the metabolic enzyme LDH is detected in the medium supernatant of the cell monolayer by adding a substrate for the enzyme to the cell culture supernatant. Reaction of the latter produces a color change, which is determined photometrically. The magnitude of the color change correlates here with the amount of LDH in the cell culture supernatant.
For all assays, the active substances were present as 1000× stocks dissolved to 10 mM in DMSO and were diluted 1:1000 in the appropriate cell culture medium for use.

[2] = system: subcutaneous adipocytes; assay: lipid assay (AdipoRed staining of total lipid); assay type: cell-based; conditions: for Assay in which the combination showed better activity than the corresponding active substance alone: Lipid: active substance combined with 10 ng/ml N-(4-amino-2-methylquinolin-6-yl)-2-((4-ethylphenoxy)methyl)benzamide, adipocytes, one week, AdipoRed, assay named in cell = better activity
Procedure: The lipid assay is performed on subcutaneous adipocytes. Cell culture dishes are inoculated with preadipocytes, which undergo differentiation into adipocytes. This is followed by treatment with the active substance for one week, during which the cells synthesize lipids and store them in vesicles. The total amount of lipid as a function of active substance effects is determined at the end of the culture period. This is done by staining the cell monolayer with the lipophilic fluorescent dye AdipoRed, followed by quantification by fluorescence spectroscopy.

[3] = system: dermal fibroblasts; assay: viability assay (BrdU incorporation, cell division rate); assay type: cell-based; conditions: 24 h; for Assay in which the combination showed better activity than the corresponding active substance alone: BrdU: active substance combined with 10 ng/ml N-(4-amino-2-methylquinolin-6-yl)-2-((4-ethylphenoxy)methyl)benzamide, assay named in cell = better activity
From the text: The cells take up this synthetic nucleic acid, which is detectable by fluorescence detection, and incorporate it into newly synthesized genetic material during cell division. […] This allows conclusions to be drawn about the effect of the individual active substances on cell viability.

| Molecule | Assay in which the combination showed better activity than the corresponding active substance alone: Lipid [2] | Assay in which the combination showed better activity than the corresponding active substance alone: BrdU [3] | other results |
| --- | --- | --- | --- |
| CCCCC(O)CO (stereo not drawn) [1,2-Hexanediol/Hydiol 6, 1,2-Hexanediol] | Lipid | – | Assay in which the combination showed better activity than the corresponding active substance alone: LDH [1]: LDH |
| OCc1ccccc1 [Benzyl alcohol] | Lipid | – | – |
| OCCCCO [Butylene glycol/Natan, Butylene glycol] | Lipid | BrdU | – |
| CCOC(=O)c1ccc(O)cc1 [Ethylparaben/Konpar A, Ethylparaben] | – | BrdU | Assay in which the combination showed better activity than the corresponding active substance alone: LDH [1]: LDH |
| CCCCCCCC(=O)OCC(O)CO (stereo not drawn) [Glyceryl caprylate/emulsifier CY, Glyceryl caprylate] | – | BrdU | – |
| CC1(C)C(=O)N(CO)C(=O)N1CO [Kondant/DMDM hydantoin, DMDM hydantoin] | Lipid | BrdU | – |
| Cn1sccc1=O [Methylisothiazolinone/Konlon 950, Methylisothiazolinone] | Lipid | BrdU | – |
| CC(CO)CO [Methylpropanediol/Lolo, Methylpropanediol] | Lipid | – | – |
| CCc1ccc(OCc2ccccc2C(=O)Nc2ccc3nc(C)cc(N)c3c2)cc1 [N-(4-Amino-2-methylquinolin-6-yl)-2-((4-ethylphenoxy)methyl)benzamide] | – | – | rate of incorporation of BrdU ([3]; in combination with a preservative versus the corresponding preservative alone, FIG. 1): increase; rate of escape of LDH ([1]; in combination with a preservative versus the corresponding preservative alone, human adipocytes, FIG. 3): decrease; accumulation of AdipoRed (differentiation performance of the adipocytes) ([2]; in combination with a preservative versus the corresponding preservative alone, one week treatment, FIG. 2): increase |
| Cc1cc(CC(C)CC(C)(C)C)n(O)c(=O)c1.NCCO (stereo not drawn) [Piroctone olamine/Octupus, Piroctone olamine] | Lipid | BrdU | – |
| O=C([O-])c1ccccc1.[Na+] [Sodium benzoate] | Lipid | – | Assay in which the combination showed better activity than the corresponding active substance alone: LDH [1]: LDH |
| O=C([O-])c1ccccc1O.[Na+] [Sodium salicylate] | Lipid | – | – |
| CCCCCCC(O)CO (stereo not drawn) [octane-1,2-diol] | – | BrdU | Assay in which the combination showed better activity than the corresponding active substance alone: LDH [1]: LDH |
| Phenoxyethanol [Phenoxyethanol/Phenoxetol] | Lipid | – | – |
